The source of these data is patent US20170087158A1, “JANUS KINASE INHIBITORS FOR TREATMENT OF DRY EYE AND OTHER EYE RELATED DISEASES” (Incyte Corporation, priority 2008, published 2017).

Test [1] deals with NOD mouse model of autoimmune type 1 diabetes. To be noted: Cetkovic-Cvrlje et al. 2003; cited from earlier work.
Test [2] deals with myeloid dendritic cells (DCs). To be noted: CD40-induced maturation of myeloid DCs; Saemann et al. 2003; cited from earlier work.

Method for JAK: Compounds herein are tested for inhibitory activity of JAK targets according to the following in vitro assay described in Park et al., Analytical Biochemistry 1999, 269, 94-104. The catalytic domains of human JAK1 (a.a. 837-1142), Jak2 (a.a. 828-1132) and Jak3 (a.a. 781-1124) with an N-terminal His tag are expressed using baculovirus in insect cells and purified. The catalytic activity of JAK1, JAK2 or JAK3 is assayed by measuring the phosphorylation of a biotinylated peptide. The phosphorylated peptide is detected by homogenous time resolved fluorescence (HTRF). IC50s of compounds is measured for each kinase in the reactions that contain the enzyme, ATP and 500 nM peptide in 50 mM Tris (pH 7.8) buffer with 100 mM NaCl, 5 mM DTT, and 0.1 mg/mL (0.01%) BSA. The ATP concentration in the reactions is 90 μM for Jak1, 30 μM for Jak2 and 3 μM for Jak3. Reactions are carried out at room temperature for 1 hr and then stopped with 20 μL 45 mM EDTA, 300 nM SA-APC, 6 nM Eu-Py20 in assay buffer (Perkin Elmer, Boston, Mass.). Binding to the Europium labeled antibody takes place for 40 minutes and HTRF signal is measured on a Fusion plate reader (Perkin Elmer, Boston, Mass.).

With `N#CCC(C1CCCC1)n1cc(-c2ncnc3[nH]ccc23)cn1` (single isomer, unassigned; peak 3) [Example 67 second peak, 3-Cyclopentyl-3-[4-(7H-pyrrolo[2,3-d]pyrimidin-4-yl)-1H-pyrazol-1-yl]propanenitrile], the “JAK inhibitor activity relative to its enantiomer” value in the test on JAK (final products from the enantiomers separated by preparative-HPLC (OD-H)) is “more active than its enantiomer”.

In the case of `COc1cc2ncnc(Nc3ccc(O)cc3)c2cc1OC` [JANEX-1], in test [1], the immunomodulatory activity entry is reported as “potent immunomodulatory activity” and the onset of diabetes result is “delayed the onset of diabetes”.

As to `N#CC[C@H](C1CCCC1)n1cc(-c2ncnc3[nH]ccc23)cn1` (mixture of isomers) [Example 67, (3R)- and (3S)-3-Cyclopentyl-3-[4-(7H-pyrrolo[2,3-d]pyrimidin-4-yl)-1H-pyrazol-1-yl]propanenitrile], in the test on JAK (qualitative, b1163: IC50 of 10 μM or less for any JAK target (JAK1, JAK2, JAK3) is considered active), the JAK inhibitor activity result is “active JAK inhibitors”.

`COc1cc2ncnc(Nc3ccc(O)c(Br)c3)c2cc1OC` [WHI-P-154]: the “effect on CD40-induced JAK3 activity, costimulatory molecule expression, IL-12 production and allogeneic stimulatory capacity” value in test [2] is “prevented these effects”.
